The values that follow come from article PMC8247773, “Benzohydrazide and Phenylacetamide Scaffolds: New Putative ParE Inhibitors” (Frontiers in Bioengineering and Biotechnology, 2021).

As usually defined, the CC50 is the concentration at which the toxic effect on the cells reaches its halfway point. Read a high CC50 as lower toxicity to the cells. The MBC is the smallest concentration meeting the test's criterion for killing. Usually IC50 stands for the concentration that gives 50% inhibition.

Converted amounts (≈) assume the structure as drawn. “And” between values parts separate entries of the source, which are not always exact repeats. Identical values can stand only once. Like-named read-outs stand apart in the source and are kept apart here.

Data set [1] has as its system MRSA (ATCC43300). The experiment in a line: Antibacterial susceptibility test, microbroth dilution MIC. Conditions: mean ± SD. Format: cell-based, methicillin-resistant Staphylococcus aureus. (Broth dilution looks for growth in wells or tubes with falling amounts of substance.)
In data set [2] the test system is Pseudomonas aeruginosa (NCIM 2036). On the set-up: method as in Yele et al., 2020, 2021. Conditions: ref Yele et al., 2020, 2021; cited from earlier work.
For data set [3], the system named is Klebsiella pneumonia (NCIM 2706). Further details: method as in Yele et al., 2020, 2021. As to conditions: ref Yele et al., 2020, 2021; cited from earlier work.
Data set [4] concerns Bacillus subtilis (NCIM 2545). Further details: method as in Yele et al., 2020, 2021. Conditions: ref Yele et al., 2020, 2021; cited from earlier work.
The subject of data set [5] is Vero cells.
The test system of data set [6] is E. coli. Description: Post antibiotic effect (PAE). Format: cell-based, Escherichia coli. As to conditions: for Time for 1 log10: untreated control 2 h.
The subject of data set [7] is E. coli. Description: Time-kill kinetics. The data set is classed as cell-based, Escherichia coli. Conditions: 0.5× and 1.0× MIC, 0-24 h. As for the experimental part:
Bactericidal activity was evaluated for the compounds by the time-kill kinetics. […] 50 μL aliquot of the culture was inoculated at regular time intervals of 0, 2, 4, 8, 16, and 24 h onto the solidified agar plates, followed by incubation at 37°C for 24 h. Ciprofloxacin is used as a reference throughout the study. CFU was calculated by the colonies formed on the agar plate at each time interval. Time-kill curves were plotted using the CFU/mL of surviving bacteria at each time point in the absence or presence of the compound ([Tsuji et al., 2008]).

In data set [8] the test system is Escherichia coli (NCIM 2567). On the set-up: method as in Yele et al., 2020, 2021. As to conditions: ref Yele et al., 2020, 2021; cited from earlier work.
The subject of data set [9] is Escherichia coli (NCIM 2065). The experiment in a line: Minimum bactericidal concentration (MBC). As to conditions: E. Coli (NCIM 2065); for MBC/MIC: ratio ≤2 bactericidal, ≥4 tolerance. The data set is classed as cell-based. As for the experimental part:
(§1) MBC can be defined as the minimum concentration of a compound required to kill the bacteria over a fixed period under precise conditions. […] Colonies were counted, and colony forming unit (CFU) per milliliter was calculated.

Data set [10] relates to MRSA (NCIM 5021). Description: Antibacterial susceptibility test, microbroth dilution MIC. The data set is classed as cell-based, methicillin-resistant Staphylococcus aureus. Conditions: mean ± SD.
Data set [11] concerns Escherichia coli (NCIM 2065). The data set is described as above. The data set is classed as cell-based. As to conditions: E. Coli (NCIM 2065), mean ± SD.
Data set [12] deals with Staphylococcus aureus (NCIM 5022). Further details: method as in Yele et al., 2020, 2021. Conditions: ref Yele et al., 2020, 2021; cited from earlier work.
In data set [13] the test system is Staphylococcus epidermis (NCIM 2493). On the set-up: method as in Yele et al., 2020, 2021. As to conditions: ref Yele et al., 2020, 2021; cited from earlier work.
Data set [14] relates to E. coli. Description: Checkerboard synergy with FDA approved drugs. The data set is classed as cell-based, Escherichia coli. Conditions: ciprofloxacin, gentamicin, rifampicin and doxycycline.
The test system of data set [15] is Vero cells. Description: In vitro cytotoxicity MTT assay. As to conditions: CC50 Vero cells / IC50. On the technique in general: Tetrazolium assays rely on reduction of a dye to a coloured formazan, in cell work by metabolically active cells.
Data set [16] has as its target T1, E. coli ParE enzyme (Escherichia coli, UniProt P20083).
T1 construct: purchased ProFoldin, Hudson, United States
Description: E. coli ParE ATPase enzyme inhibition assay (ProFoldin kit, malachite green). Format: biochemical. As to conditions: ATPase activity, mean ± SD (n = 3). The method in brief:
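E. coli ParE ATPase activity measured as inorganic phosphate released from ATP hydrolysis in the presence of DNA. Reaction ran 1 h at 37°C, quenched with malachite green dye, absorbance read at 650 nm after 5 min. IC50 from non-linear regression against no-enzyme and no-compound controls.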

In data set [17] the test system is MRSA (NCIM 5021). The experiment in a line: Minimum bactericidal concentration (MBC). Format: cell-based, methicillin-resistant Staphylococcus aureus. On the procedure:
as §1

The test system of data set [18] is MRSA (ATCC43300). Description: Minimum bactericidal concentration (MBC). The data set is classed as cell-based, methicillin-resistant Staphylococcus aureus. On the procedure: as §1
The test system of data set [19] is Mycobacterium tuberculosis (NCIM 2984). On the set-up: method as in Yele et al., 2020, 2021. Conditions: ref Yele et al., 2020, 2021; cited from earlier work.
Data set [20] deals with Salmonella typhi (NCIM 2501). On the set-up: method as in Yele et al., 2020, 2021. Conditions: ref Yele et al., 2020, 2021; cited from earlier work.
Data set [21] can be described thus: In vitro cytotoxicity MTT assay. Conditions: African green monkey, Vero cells.
Setting [22] is: Staphylococcus aureus, read-out: Minimum inhibitory concentration.
Where [23] appears, read: Staphylococcus aureus, read-out: MBC.

T1 sequence (P20083 whole entry): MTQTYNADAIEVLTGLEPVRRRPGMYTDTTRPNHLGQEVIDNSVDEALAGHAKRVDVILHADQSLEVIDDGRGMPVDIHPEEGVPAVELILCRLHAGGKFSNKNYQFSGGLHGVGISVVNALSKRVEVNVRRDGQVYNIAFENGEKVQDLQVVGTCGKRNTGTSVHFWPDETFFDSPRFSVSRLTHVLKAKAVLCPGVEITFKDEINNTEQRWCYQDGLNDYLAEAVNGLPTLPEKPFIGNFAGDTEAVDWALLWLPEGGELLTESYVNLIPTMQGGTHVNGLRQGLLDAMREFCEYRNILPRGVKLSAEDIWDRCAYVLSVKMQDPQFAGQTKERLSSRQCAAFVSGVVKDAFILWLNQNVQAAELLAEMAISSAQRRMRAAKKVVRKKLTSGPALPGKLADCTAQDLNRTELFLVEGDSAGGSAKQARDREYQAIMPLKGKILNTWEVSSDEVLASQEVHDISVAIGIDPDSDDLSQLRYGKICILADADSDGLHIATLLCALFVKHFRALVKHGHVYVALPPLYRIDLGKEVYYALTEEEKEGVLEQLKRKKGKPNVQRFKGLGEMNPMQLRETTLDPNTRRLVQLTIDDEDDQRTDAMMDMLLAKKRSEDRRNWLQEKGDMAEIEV
T1 sequence (P0AFI2 whole entry, further chain): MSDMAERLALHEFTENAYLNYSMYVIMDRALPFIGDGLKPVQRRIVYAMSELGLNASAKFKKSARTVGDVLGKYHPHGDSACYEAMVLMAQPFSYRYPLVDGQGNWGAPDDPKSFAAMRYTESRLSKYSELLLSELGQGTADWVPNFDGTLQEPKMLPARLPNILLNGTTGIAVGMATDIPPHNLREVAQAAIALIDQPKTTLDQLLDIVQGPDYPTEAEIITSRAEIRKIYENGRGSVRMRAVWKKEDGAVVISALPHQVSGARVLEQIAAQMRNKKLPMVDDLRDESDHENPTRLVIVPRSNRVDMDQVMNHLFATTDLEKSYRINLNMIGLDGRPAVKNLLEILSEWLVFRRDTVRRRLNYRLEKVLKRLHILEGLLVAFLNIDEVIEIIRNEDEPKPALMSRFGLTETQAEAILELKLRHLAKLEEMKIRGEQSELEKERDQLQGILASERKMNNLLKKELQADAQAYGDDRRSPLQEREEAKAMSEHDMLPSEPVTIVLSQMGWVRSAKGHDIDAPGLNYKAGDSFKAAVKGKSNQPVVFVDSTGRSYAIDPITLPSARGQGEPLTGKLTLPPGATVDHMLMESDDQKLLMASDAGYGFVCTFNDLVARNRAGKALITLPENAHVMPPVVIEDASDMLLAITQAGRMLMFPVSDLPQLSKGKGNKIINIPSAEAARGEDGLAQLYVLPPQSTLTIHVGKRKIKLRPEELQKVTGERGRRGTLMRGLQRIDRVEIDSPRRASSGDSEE

For `O=C(COc1ccccc1NC(=O)CCl)Nc1ccc(C(=O)O)cc1Br` [Compound 5], the Minimum inhibitory concentration in [1] was 0.68 µg/mL and 0.68 ± 0.08 µg/mL; in data set [10], 0.72 ± 0.05 µg/mL (≈ 1.63 µM); in data set [11], 0.64 µg/mL and 0.64 ± 0.03 µg/mL. Also, the “Minimum inhibitory concentration (MIC) P. a” value in data set [2] is on record as 6.25. Further, the “Minimum inhibitory concentration (MIC) K. p” value in [3] was 7.52. Further, the “Minimum inhibitory concentration (MIC) B. s” value in [4] is reported as 7.82. Further, the CC50 in data set [5] was determined as 61.7583 µg/mL (≈ 140 µM). In addition, the “PAE = T - C” value in data set [6] (1 × mic) is recorded as 1 h; in data set [6] (10 × mic), about 2 h. Also, the “Time for 1 log10” value in data set [6] (1 × mic) is reported as 3 h; in data set [6] (10 × mic), 4 h. In addition, the Time-kill kinetics result in data set [7] is “bactericidal property”. Further, the “Minimum inhibitory concentration (MIC) E. c” value in data set [8] is reported as 8.25. Moreover, the MBC in data set [9] was found to be 0.64 ± 0.42 µg/mL (≈ 1.45 µM); in data set [17] it was 1.54 ± 0.11 µg/mL (≈ 3.49 µM); in data set [18], 0.68 ± 0.08 µg/mL (≈ 1.54 µM). The MBC/MIC in data set [9] was found to be 1; in data set [17] it was 2; in [18], 1. For the same compound, in data set [12], the “Minimum inhibitory concentration (MIC) S. a” value was 2.64. The “Minimum inhibitory concentration (MIC) S. e” value in data set [13] is 5.63. In addition, the “Synergy with FDA-approved antibiotics” value in [14] is recorded as “synergized”. For the same compound, in data set [15], the “SI (CC50/IC50)” value turned out to be 176.4531. The “IC50 against E. coli ParE enzyme” value in data set [16] is 0.35 ± 0.03 µg/mL (≈ 0.792 µM). Further, the “Minimum inhibitory concentration (MIC) M. t” value in data set [19] is listed as 0.78.
Consider `O=C(CCl)Nc1ccccc1OCC(=O)Nc1ccc(C(=O)O)cc1[N+](=O)[O-]` [Compound 8], for which the MIC in [1] (setting [22]) worked out at 1.06 ± 0.12 µg/mL (≈ 2.6 µM); in data set [10] (setting [22]), 0.66 µg/mL (≈ 1.62 µM); in data set [11] (Escherichia coli, NCIM2065, read-out: Minimum inhibitory concentration), 0.93 ± 0.03 µg/mL (≈ 2.28 µM). Also, the “Minimum inhibitory concentration (MIC) P. a” value in [2] was 0.69. For the same compound, the “Minimum inhibitory concentration (MIC) K. p” value in [3] is 0.72. Also, the “Minimum inhibitory concentration (MIC) B. s” value in [4] was 7.80. The “Minimum inhibitory concentration (MIC) E. c” value in data set [8] was 0.70. Also, the MBC/MIC in data set [9] is 1; in data set [17] it was 1; in [18], 2. The minimal bactericidal concentration (MBC) stood at 0.93 ± 0.03 µg/mL (≈ 2.28 µM) in data set [9] (Escherichia coli, NCIM2065, read-out: MBC); 0.63 ± 0.13 µg/mL (≈ 1.55 µM) in data set [17] (setting [23]); 2.46 ± 0.12 µg/mL (≈ 6.03 µM) in [18] (setting [23]). Further, the Minimum inhibitory concentration in data set [10] came out at 0.66 ± 0.13 µg/mL (≈ 1.62 µM). In addition, the “Minimum inhibitory concentration (MIC) S. t” value in data set [20] is listed as 0.72. Further, the “Minimum inhibitory concentration (MIC) S. a” value in data set [12] is 8.64. In data set [13], the “Minimum inhibitory concentration (MIC) S. e” value is reported as 4.83. This compound also registered a CC50 at 48 h in data set [21] of 257 µg/mL (≈ 630 µM). Further, the IC50 in data set [16] (read-out: IC50 against E. coli ParE enzyme (converted)) was 662 nM. Further, in [19], the “Minimum inhibitory concentration (MIC) M. t” value is 1.38.
